Experimental data: ChEMBL document CHEMBL2321687, “Identification of a novel arylpiperazine scaffold for fatty acid amide hydrolase inhibition with improved drug disposition properties” (Bioorg Med Chem Lett, 2013)
pKi: −log10 of the molar value.

How the values were obtained:
[1] = target: Adenosine receptor A1 (Homo sapiens) (UniProt P30542); assay: Displacement of [3H]DPCPX from human recombinant adenosine A1 receptor expressed in CHO cells at 1 uM; format: cell-based
[2] = target: Substance-K receptor (Homo sapiens) (UniProt P21452); assay: Displacement of [125I]NKA from human recombinant NK2 receptor expressed in CHO cells at 1 uM; format: cell-based
[3] = target: Neuromedin-K receptor (Homo sapiens) (UniProt P29371); assay: Displacement of [3H]SR142801 from human recombinant NK3 receptor expressed in CHO cells at 1 uM; format: cell-based
[4] = target: Galanin receptor type 2 (Homo sapiens) (UniProt O43603); assay: Displacement of [125I]Galanin from human recombinant GAL2 receptor expressed in CHO cells at 1 uM; format: cell-based
Rattus norvegicus [5] = species: Rattus norvegicus; assay: Displacement of [3H](-)D888 from rat L-type Ca2+ channel verapamil site in cerebral cortex; format: tissue-based; conditions: concentration not given here
[6] = target: Muscarinic acetylcholine receptor M1 (Homo sapiens) (UniProt P11229); assay: Displacement of [3H]pirenzepine from human recombinant muscarinic M1 receptor expressed in CHO cells at 1 uM; format: cell-based
[7] = target: Thromboxane A2 receptor (Homo sapiens) (UniProt P21731); assay: Displacement of [3H]SQ29548 from human recombinant TP receptor expressed in HEK293 cells at 1 uM; format: cell-based
[8] = target: Muscarinic acetylcholine receptor M3 (Homo sapiens) (UniProt P20309); assay: Displacement of [3H]4-DAMP from human recombinant muscarinic M3 receptor expressed in CHO cells at 1 uM; format: cell-based
[9] = target: B2 bradykinin receptor (Homo sapiens) (UniProt P30411); assay: Displacement of [3H]bradykinin from human recombinant B2 receptor expressed in CHO cells at 1 uM; format: cell-based
[10] = target: Type-1 angiotensin II receptor (Homo sapiens) (UniProt P30556); assay: Displacement of [125I][Sar1,Ile8]-AT II from human recombinant AT1 receptor expressed in HEK293 cells at 1 uM; format: cell-based
Rattus norvegicus [11] = species: Rattus norvegicus; assay: Displacement of [3H]GABA from rat GABA in cerebral cortex; format: tissue-based; conditions: concentration not given here
[12] = target: 5-hydroxytryptamine receptor 2A (Homo sapiens) (UniProt P28223); assay: Displacement of [3H]Ketanserin from human recombinant 5-HT2A receptor expressed in HEK293 cells at 1 uM; format: cell-based
[13] = target: Adenosine receptor A2a (Homo sapiens) (UniProt P29274); assay: Displacement of [3H]CGS21680 from human recombinant adenosine A2A receptor expressed in HEK293 cells at 1 uM; format: cell-based
Sequence of Adenosine receptor A2a (Homo sapiens) (P29274 whole entry): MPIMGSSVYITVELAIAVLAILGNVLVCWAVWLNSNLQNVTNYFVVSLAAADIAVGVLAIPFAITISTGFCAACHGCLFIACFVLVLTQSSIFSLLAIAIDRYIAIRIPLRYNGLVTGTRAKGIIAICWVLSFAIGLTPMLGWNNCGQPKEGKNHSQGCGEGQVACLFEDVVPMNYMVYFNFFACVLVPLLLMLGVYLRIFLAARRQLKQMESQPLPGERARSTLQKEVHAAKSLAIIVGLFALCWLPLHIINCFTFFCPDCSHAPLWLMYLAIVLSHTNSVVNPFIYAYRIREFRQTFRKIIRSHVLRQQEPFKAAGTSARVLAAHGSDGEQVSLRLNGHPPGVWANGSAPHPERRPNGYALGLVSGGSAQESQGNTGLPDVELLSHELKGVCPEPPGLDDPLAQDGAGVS

Rattus norvegicus [14] = species: Rattus norvegicus; assay: Displacement of [125I]a-dendrotoxin from rat K+ V channel in cerebral cortex; format: tissue-based; conditions: concentration not given here
[15] = target: Cannabinoid receptor 1 (Homo sapiens) (UniProt P21554); assay: Displacement of [3H]CP55940 from human recombinant CB1 receptor expressed in CHO cells at 1 uM; format: cell-based
Sequence of Cannabinoid receptor 1 (Homo sapiens) (P21554 whole entry): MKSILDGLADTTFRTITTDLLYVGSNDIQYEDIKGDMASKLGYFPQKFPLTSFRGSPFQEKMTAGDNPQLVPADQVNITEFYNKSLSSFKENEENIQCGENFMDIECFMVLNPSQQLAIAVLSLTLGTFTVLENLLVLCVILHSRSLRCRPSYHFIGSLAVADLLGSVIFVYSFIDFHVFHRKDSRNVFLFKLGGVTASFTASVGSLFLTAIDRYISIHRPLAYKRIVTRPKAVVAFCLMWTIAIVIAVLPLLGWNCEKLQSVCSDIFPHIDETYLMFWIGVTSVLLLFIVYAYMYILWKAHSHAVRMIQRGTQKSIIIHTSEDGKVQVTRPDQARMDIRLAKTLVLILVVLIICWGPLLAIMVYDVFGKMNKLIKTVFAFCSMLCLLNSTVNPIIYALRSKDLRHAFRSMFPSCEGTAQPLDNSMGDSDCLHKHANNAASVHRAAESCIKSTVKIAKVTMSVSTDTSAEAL

[16] = target: Beta-2 adrenergic receptor (Homo sapiens) (UniProt P07550); assay: Displacement of [3H](-)CGP12177 from human recombinant beta2 receptor expressed in CHO cells at 1 uM; format: cell-based
[17] = target: T1, Fatty-acid amide hydrolase 1 (Mus musculus, UniProt O08914); assay: Inhibition of FAAH in mouse brain homogenate using [3Hethanolamine]AEA as substrate incubated for 20 mins prior to substrate addition measured after 15 mins by beta counting analysis; format: tissue-based
T1 sequence (O08914 whole entry): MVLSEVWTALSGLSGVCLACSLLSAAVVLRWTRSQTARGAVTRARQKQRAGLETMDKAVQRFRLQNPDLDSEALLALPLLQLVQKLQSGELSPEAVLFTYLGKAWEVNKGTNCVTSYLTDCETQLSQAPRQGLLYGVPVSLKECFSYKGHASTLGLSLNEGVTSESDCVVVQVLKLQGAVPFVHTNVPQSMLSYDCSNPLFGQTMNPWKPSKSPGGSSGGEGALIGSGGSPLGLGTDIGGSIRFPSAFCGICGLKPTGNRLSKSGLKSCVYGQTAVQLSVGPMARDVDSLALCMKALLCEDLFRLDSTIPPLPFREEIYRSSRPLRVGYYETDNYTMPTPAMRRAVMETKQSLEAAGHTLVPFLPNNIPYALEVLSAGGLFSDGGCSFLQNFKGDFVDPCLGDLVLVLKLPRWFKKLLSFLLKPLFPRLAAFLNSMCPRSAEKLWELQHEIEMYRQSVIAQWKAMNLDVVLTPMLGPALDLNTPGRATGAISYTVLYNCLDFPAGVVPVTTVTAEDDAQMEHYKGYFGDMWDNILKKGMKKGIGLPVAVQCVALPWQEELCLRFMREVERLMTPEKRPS

[18] = target: Endothelin-1 receptor (Homo sapiens) (UniProt P25101); assay: Displacement of [125I]endothelin-1 from human recombinant ETA receptor expressed in CHO cells at 1 uM; format: cell-based
[19] = target: Neuropeptide Y receptor type 2 (Homo sapiens) (UniProt P49146); assay: Displacement of [125I]peptideYY from human Y2 receptor in KAN-TS cells; format: cell-based; conditions: concentration not given here
[20] = target: 5-hydroxytryptamine receptor 6 (Homo sapiens) (UniProt P50406); assay: Displacement of [3H]LSD from human recombinant 5-HT6 receptor expressed in CHO cells at 1 uM; format: cell-based
Rattus norvegicus [21] = species: Rattus norvegicus; assay: Displacement of [3H]batrachotoxinin from rat Na+ channel site 2 in cerebral cortex; format: tissue-based; conditions: concentration not given here
[22] = target: Sodium-dependent dopamine transporter (Homo sapiens) (UniProt Q01959); assay: Displacement of [3H]BTCP from human recombinant DA transporter expressed in CHO cells at 1 uM; format: cell-based
[23] = target: D(1A) dopamine receptor (Homo sapiens) (UniProt P21728); assay: Displacement of [3H]SCH23390 from human recombinant D1 receptor expressed in CHO cells at 1 uM; format: cell-based
[24] = target: Adenosine receptor A3 (Homo sapiens) (UniProt P0DMS8); assay: Displacement of [3H]AB-MECA from human recombinant adenosine A3 receptor expressed in HEK293 cells at 1 uM; format: cell-based
[25] = target: Cholecystokinin receptor type A (Homo sapiens) (UniProt P32238); assay: Displacement of [125I]CCK-8 from human recombinant CCKA receptor expressed in CHO cells at 1 uM; format: cell-based
Sequence of Cholecystokinin receptor type A (Homo sapiens) (P32238 whole entry): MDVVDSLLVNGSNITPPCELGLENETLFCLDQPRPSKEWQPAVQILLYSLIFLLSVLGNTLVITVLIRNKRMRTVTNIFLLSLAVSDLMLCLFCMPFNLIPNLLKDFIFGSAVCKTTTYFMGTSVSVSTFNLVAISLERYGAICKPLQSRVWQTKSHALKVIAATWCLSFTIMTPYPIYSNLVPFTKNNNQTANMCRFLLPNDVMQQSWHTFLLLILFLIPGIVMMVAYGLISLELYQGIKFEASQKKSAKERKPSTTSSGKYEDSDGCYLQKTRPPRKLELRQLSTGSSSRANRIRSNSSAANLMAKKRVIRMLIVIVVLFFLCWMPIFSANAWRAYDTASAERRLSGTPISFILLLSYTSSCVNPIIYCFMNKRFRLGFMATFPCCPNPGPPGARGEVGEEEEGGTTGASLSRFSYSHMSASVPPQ

[26] = target: D(2) dopamine receptor (Homo sapiens) (UniProt P14416); assay: Displacement of [3H]spiperone from human recombinant D2S receptor expressed in HEK293 cells at 1 uM; format: cell-based
Sequence of D(2) dopamine receptor (Homo sapiens) (P14416 whole entry): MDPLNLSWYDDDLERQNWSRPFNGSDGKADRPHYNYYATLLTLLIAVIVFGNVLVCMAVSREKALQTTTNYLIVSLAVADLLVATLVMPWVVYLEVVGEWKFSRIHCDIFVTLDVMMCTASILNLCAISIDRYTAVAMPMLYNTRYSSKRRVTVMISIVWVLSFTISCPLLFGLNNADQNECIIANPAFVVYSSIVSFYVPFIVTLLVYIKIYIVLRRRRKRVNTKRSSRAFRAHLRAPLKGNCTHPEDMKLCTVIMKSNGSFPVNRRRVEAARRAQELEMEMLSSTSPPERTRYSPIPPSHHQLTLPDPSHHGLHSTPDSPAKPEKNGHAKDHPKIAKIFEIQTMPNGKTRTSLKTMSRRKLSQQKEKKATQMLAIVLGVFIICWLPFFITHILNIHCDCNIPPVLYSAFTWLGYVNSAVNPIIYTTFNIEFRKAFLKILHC

[27] = target: Somatostatin receptor (Mus musculus) (UniProt P30935+O08858+P30875+P30873+P49660); assay: Displacement of [125I]Tyr11-somatostatin-14 from mouse sst receptor in AtT20 cells; format: cell-based; conditions: concentration not given here
Sequence of Somatostatin receptor (Mus musculus) (P30935 whole entry): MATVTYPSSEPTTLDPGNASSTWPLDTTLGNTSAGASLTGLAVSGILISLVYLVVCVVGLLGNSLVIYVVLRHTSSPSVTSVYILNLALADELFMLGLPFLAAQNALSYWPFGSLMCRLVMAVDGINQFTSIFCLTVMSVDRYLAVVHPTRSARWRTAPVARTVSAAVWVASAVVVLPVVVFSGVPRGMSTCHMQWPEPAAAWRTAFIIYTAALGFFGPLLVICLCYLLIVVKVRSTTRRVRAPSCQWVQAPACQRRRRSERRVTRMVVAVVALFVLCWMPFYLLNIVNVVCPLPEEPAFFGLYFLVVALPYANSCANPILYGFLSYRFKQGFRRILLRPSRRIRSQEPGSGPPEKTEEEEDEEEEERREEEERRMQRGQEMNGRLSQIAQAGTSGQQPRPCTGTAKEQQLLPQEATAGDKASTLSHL
Sequence of Somatostatin receptor (Mus musculus) (O08858 whole entry): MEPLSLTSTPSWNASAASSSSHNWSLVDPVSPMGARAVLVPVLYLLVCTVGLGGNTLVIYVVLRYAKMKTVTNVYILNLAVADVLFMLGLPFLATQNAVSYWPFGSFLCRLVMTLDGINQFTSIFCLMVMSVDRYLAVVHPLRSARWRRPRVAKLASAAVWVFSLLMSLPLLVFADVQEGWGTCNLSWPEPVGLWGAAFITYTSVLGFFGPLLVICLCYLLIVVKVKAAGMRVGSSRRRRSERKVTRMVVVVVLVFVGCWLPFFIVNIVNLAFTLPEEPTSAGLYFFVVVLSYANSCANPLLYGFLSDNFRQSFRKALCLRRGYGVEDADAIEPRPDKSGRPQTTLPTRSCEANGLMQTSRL
Sequence of Somatostatin receptor (Mus musculus) (P30875 whole entry): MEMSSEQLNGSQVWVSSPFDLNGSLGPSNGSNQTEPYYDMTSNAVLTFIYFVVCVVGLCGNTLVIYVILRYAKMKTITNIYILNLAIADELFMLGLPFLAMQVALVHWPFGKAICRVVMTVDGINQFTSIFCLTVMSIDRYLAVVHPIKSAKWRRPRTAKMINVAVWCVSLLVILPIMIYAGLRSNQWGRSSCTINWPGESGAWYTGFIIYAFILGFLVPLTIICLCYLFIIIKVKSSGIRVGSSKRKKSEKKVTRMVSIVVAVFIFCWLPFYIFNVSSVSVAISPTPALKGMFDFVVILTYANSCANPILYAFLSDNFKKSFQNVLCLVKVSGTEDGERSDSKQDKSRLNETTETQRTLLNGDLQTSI
Sequence of Somatostatin receptor (Mus musculus) (P30873 whole entry): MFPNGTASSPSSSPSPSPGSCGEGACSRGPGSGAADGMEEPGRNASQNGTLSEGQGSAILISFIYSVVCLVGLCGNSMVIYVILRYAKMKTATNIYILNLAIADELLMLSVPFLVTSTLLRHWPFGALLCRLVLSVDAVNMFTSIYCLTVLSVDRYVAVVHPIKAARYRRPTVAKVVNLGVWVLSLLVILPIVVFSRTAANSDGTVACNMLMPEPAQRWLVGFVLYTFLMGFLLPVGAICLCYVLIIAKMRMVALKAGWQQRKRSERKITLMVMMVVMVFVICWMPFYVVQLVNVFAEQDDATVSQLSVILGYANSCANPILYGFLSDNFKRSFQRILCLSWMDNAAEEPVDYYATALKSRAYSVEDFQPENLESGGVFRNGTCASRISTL
Sequence of Somatostatin receptor (Mus musculus) (P49660 with tags, fused parts or gaps): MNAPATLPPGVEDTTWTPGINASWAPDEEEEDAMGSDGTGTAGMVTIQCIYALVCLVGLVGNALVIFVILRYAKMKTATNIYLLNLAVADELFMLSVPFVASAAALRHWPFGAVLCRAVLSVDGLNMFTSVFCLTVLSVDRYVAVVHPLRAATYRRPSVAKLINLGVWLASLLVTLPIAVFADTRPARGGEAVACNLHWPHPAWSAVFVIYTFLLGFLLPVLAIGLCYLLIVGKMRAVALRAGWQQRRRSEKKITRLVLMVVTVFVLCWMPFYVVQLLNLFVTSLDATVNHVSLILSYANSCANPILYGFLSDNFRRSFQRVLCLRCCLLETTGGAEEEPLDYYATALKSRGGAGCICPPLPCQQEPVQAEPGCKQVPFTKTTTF

CHO = assay: Displacement of [3H]DADLE from human recombinant delta2 opioid receptor expressed in CHO cells at 1 uM; format: cell-based
[28] = target: 5-hydroxytryptamine receptor 1B (Rattus norvegicus) (UniProt P28564); assay: Displacement of [125I]CYP from rat 5-HT1B receptor in cerebral cortex; format: tissue-based; conditions: concentration not given here
[29] = target: Muscarinic acetylcholine receptor M2 (Homo sapiens) (UniProt P08172); assay: Displacement of [3H]AF-DX384 from human recombinant muscarinic M2 receptor expressed in CHO cells at 1 uM; format: cell-based
Sequence of Muscarinic acetylcholine receptor M2 (Homo sapiens) (P08172 whole entry): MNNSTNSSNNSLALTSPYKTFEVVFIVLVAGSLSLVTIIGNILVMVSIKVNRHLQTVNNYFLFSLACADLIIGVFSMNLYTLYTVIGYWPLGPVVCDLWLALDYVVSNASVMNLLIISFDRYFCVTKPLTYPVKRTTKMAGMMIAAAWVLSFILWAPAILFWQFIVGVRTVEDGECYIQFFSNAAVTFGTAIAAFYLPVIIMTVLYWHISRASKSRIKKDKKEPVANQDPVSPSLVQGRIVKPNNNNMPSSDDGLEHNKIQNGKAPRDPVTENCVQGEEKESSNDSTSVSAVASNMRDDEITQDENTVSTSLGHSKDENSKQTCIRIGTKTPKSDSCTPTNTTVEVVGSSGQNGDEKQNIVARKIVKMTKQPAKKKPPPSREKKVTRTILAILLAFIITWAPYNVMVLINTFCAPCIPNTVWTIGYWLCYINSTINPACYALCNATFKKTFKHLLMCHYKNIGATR

[30] = target: Vasoactive intestinal polypeptide receptor 1 (Homo sapiens) (UniProt P32241); assay: Displacement of [125I]VIP from human recombinant VPAC1 receptor expressed in CHO cells at 1 uM; format: cell-based
[31] = target: Histamine H2 receptor (Homo sapiens) (UniProt P25021); assay: Displacement of [125I]APT from human recombinant H2 receptor expressed in CHO cells at 1 uM; format: cell-based
Rattus norvegicus [32] = species: Rattus norvegicus; assay: Displacement of [35S]TBPS from rat GABA gated chloride channel in cerebral cortex; format: tissue-based; conditions: concentration not given here
[33] = target: Sodium-dependent serotonin transporter (Homo sapiens) (UniProt P31645); assay: Displacement of [3H]imipramine from human recombinant 5-HT transporter expressed in CHO cells at 1 uM; format: cell-based
[34] = target: C-X-C chemokine receptor type 2 (Homo sapiens) (UniProt P25025); assay: Displacement of [125I]IL-8 from human recombinant CXCR2 receptor expressed in HEK293 cells at 1 uM; format: cell-based
[35] = target: 5-hydroxytryptamine receptor 7 (Homo sapiens) (UniProt P34969); assay: Displacement of [3H]LSD from human recombinant 5-HT7 receptor expressed in CHO cells at 1 uM; format: cell-based
[36] = target: 5-hydroxytryptamine receptor 3A (Homo sapiens) (UniProt P46098); assay: Displacement of [3H]BRL43694 from human recombinant 5-HT3 receptor expressed in CHO cells at 1 uM; format: cell-based
Rattus norvegicus [37] = species: Rattus norvegicus; assay: Displacement of [3H]flunitrazepam from rat central BZD receptor in cerebral cortex; format: tissue-based; conditions: concentration not given here
[38] = target: Melanocortin receptor 4 (Homo sapiens) (UniProt P32245); assay: Displacement of [125I]NDP-a-MSH from human recombinant MC4 receptor expressed in CHO cells at 1 uM; format: cell-based
[39] = target: 5-hydroxytryptamine receptor 1A (Homo sapiens) (UniProt P08908); assay: Displacement of [3H]8-OH-DPAT from human recombinant 5-HT1A receptor expressed in HEK293 cells at 1 uM; format: cell-based
[40] = target: Nociceptin receptor (Homo sapiens) (UniProt P41146); assay: Displacement of [3H]Nociceptin from human recombinant ORL1 receptor expressed in HEK293 cells at 1 uM; format: cell-based
[41] = target: 5-hydroxytryptamine receptor 2B (Homo sapiens) (UniProt P41595); assay: Displacement of [125I](+/-)DOI from human recombinant 5-HT2B receptor expressed in CHO cells at 1 uM; format: cell-based
[42] = target: 5-hydroxytryptamine receptor 5A (Homo sapiens) (UniProt P47898); assay: Displacement of [3H]LSD from human recombinant 5-HT5A receptor expressed in CHO cells at 1 uM; format: cell-based
[43] = target: Melatonin receptor type 1A (Homo sapiens) (UniProt P48039); assay: Displacement of [125I]2-iodomelatonin from human recombinant MT1 receptor expressed in CHO cells at 1 uM; format: cell-based
[44] = target: Mu-type opioid receptor (Homo sapiens) (UniProt P35372); assay: Displacement of [3H]DAMGO from human recombinant mu opioid receptor expressed in HEK293 cells at 1 uM; format: cell-based
Sequence of Mu-type opioid receptor (Homo sapiens) (P35372 whole entry): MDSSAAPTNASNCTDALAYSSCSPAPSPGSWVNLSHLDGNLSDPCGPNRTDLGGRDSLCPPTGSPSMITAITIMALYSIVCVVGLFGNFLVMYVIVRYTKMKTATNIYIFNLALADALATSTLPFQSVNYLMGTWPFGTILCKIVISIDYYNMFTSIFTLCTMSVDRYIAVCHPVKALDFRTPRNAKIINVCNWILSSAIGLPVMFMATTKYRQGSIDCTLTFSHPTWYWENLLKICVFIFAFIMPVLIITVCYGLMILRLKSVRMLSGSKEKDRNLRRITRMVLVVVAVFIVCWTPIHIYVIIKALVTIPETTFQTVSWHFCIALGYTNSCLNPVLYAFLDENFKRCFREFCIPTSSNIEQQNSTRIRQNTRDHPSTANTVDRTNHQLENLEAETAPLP

[45] = target: Adrenergic receptor alpha-2 (Rattus norvegicus) (UniProt P22086+P19328+P22909); assay: Displacement of [3H]RX821002 from rat alpha2 receptor in cerebral cortex; format: tissue-based; conditions: concentration not given here
[46] = target: Histamine H1 receptor (Homo sapiens) (UniProt P35367); assay: Displacement of [3H]pyrilamine from human recombinant H1 receptor expressed in HEK293 cells at 1 uM; format: cell-based
[47] = target: Kappa-type opioid receptor (Rattus norvegicus) (UniProt P34975); assay: Displacement of [3H]U69593 from rat recombinant kappa opioid receptor expressed in CHO cells at 1 uM; format: cell-based
[48] = target: Beta-1 adrenergic receptor (Homo sapiens) (UniProt P08588); assay: Displacement of [3H](-)CGP12177 from human recombinant beta1 receptor expressed in HEK293 cells at 1 uM; format: cell-based
[49] = target: Adrenergic receptor alpha-1 (Rattus norvegicus) (UniProt P15823+P23944+P43140); assay: Displacement of [3H]prazosin from rat alpha1 receptor in cerebral cortex; format: tissue-based; conditions: concentration not given here
[50] = target: Sodium-dependent noradrenaline transporter (Homo sapiens) (UniProt P23975); assay: Displacement of [3H]nisoxetine from human recombinant NE transporter expressed in CHO cells at 1 uM; format: cell-based
[51] = target: Vasopressin V1a receptor (Homo sapiens) (UniProt P37288); assay: Displacement of [3H]AVP from human recombinant V1a receptor expressed in CHO cells at 1 uM; format: cell-based

Sequence of Adenosine receptor A1 (Homo sapiens) (P30542 whole entry): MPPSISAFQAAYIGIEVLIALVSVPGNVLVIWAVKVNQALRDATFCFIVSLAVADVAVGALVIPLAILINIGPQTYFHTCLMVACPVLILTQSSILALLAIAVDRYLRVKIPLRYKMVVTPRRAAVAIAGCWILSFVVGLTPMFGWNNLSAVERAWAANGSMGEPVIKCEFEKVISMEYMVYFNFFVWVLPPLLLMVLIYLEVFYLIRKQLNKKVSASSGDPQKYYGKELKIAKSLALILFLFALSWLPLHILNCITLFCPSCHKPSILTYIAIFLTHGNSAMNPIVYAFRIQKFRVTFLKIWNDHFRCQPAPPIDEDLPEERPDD

## CCCCCCCOc1ccc(NC(=O)Oc2cccc(N3CCNCC3)c2)cc1
[1]
  inhibition: 9%
[2]
  inhibition: -10%
[3]
  inhibition: -7%
[4]
  inhibition: -10%
Rattus norvegicus [5]
  inhibition: 30%
[6]
  inhibition: 28%
[7]
  inhibition: 1%
[8]
  inhibition: 35%
[9]
  inhibition: -5%
[10]
  inhibition: -1%
Rattus norvegicus [11]
  inhibition: 0%
[12]
  inhibition: 96%
[13]
  inhibition: 3%
Rattus norvegicus [14]
  inhibition: -5%
[15]
  inhibition: 30%
[16]
  inhibition: 19%
[17]
  pKi: < 6.30
[18]
  inhibition: 14%
[19]
  inhibition: -9%
[20]
  inhibition: 42%
Rattus norvegicus [21]
  inhibition: 32%
[22]
  inhibition: 103%
[23]
  inhibition: 70%
[24]
  inhibition: 4%
[25]
  inhibition: 1%
[26]
  inhibition: 9%
[27]
  inhibition: -2%
CHO
  inhibition: 61%
[28]
  inhibition: 96%
[29]
  inhibition: 23%
[30]
  inhibition: -1%
[31]
  inhibition: 27%
Rattus norvegicus [32]
  inhibition: 2%
[33]
  inhibition: 36%
[34]
  inhibition: -5%
[35]
  inhibition: 48%
[36]
  inhibition: 7%
Rattus norvegicus [37]
  inhibition: 16%
[38]
  inhibition: 3%
[39]
  inhibition: 97%
[40]
  inhibition: 7%
[41]
  inhibition: 91%
[42]
  inhibition: 27%
[43]
  inhibition: -6%
[44]
  inhibition: 77%
[45]
  inhibition: 52%
[46]
  inhibition: 22%
[47]
  inhibition: 57%
[48]
  inhibition: 66%
[49]
  inhibition: 7%
[50]
  inhibition: 52%
[51]
  inhibition: 17%

## CCCCOc1ccc(NC(=O)Oc2cccc(N3CCNCC3)c2)cc1
[17]
  pKi: < 6.30
